Laboratory results: US6589762B1, “Calcafluor screen for chitin biosynthesis inhibitors” (priority 1993, dated 2003)

Columns and labels:
Aspergillus nidulans = test: Calcofluor rescue with filamentous fungus instead of S. cerevisiae; format: cell-based; conditions: very high calcofluor concentrations
Text: (§1) Attempts are made to replace S. cerevisiae with several species of filamentous fungi, including Neurospora crassa, Aspergillus nidulans, Botrytis cinerea, Pseudocercosporella herpotrichoides, but all the species respond differently from S. cerevisiae. N. crassa and A. nidulans require very high concentrations of calcofluor to inhibit growth.

Botrytis cinerea = test: as above; format: cell-based; conditions: does not grow in the media
Text: as §1

Neurospora crassa = test: as above; format: cell-based; conditions: very high calcofluor concentrations
Text: as §1

[1] = test system: Pseudocercosporella herpotrichoides; test: as above; format: cell-based; conditions: does not grow in the media
Text: as §1

[2] = test system: strain SSY638-3B (containing only Chs2); test: In vivo secondary screen, growth of chitin synthase mutant yeast; format: cell-based, Saccharomyces cerevisiae
Text: Especially preferred in vivo secondary screens employ a pair of genetically related strains, one producing one isozyme, e.g., Chs2, and the other producing a different isozyme, e.g., Chs3. Using pairs allows for the simultaneous determination that culture conditions are appropriate for growth in the absence of inhibition and the identification of which isozyme may be affected by inhibition. The pairs, for example, include the ECY36-3C and ECY36-3D strains described by Shaw, cited above, that produce only Chs3 and Chs 2, respectively, and similar pairs such as SSY640-10A (containing only Chs3) and SSY-638-3B (containing only Chs 2) described in the Examples below. […] In a similar manner, a comparison of differential effects observed in the growth of strain pairs in the presence of a test sample allows for the putative identification of which isozyme is affected by the sample.
In Vivo Secondary Screens. The in vivo calcofluor rescue secondary screens assay the differential effect of compounds on the growth of two pairs of yeast strains. Each strain in the pairs, denoted ECY36-3C and ECY36-3D and SSY640-10A and SSY638-3B, is a chitin synthase mutant that relies on the expression of a single chitin synthase isozyme for its survival.
Strain SSY640-10A has genotype chs1::HIS3, chs2::TRP1, his3, trp1, ade2, ade3, leu2, lys2, ura3 (possible cmk1Δ 1::HIS3). […]

C[C@@H]([C@H](N)C(=O)N[C@H](C(=O)O)[C@H]1O[C@@H](n2ccc(=O)[nH]c2=O)[C@H](O)[C@@H]1O)[C@H](O)c1ccc(O)cn1 [nikkomycin Z]
growth in calcofluor culture (Aspergillus nidulans): extensive growth | rescue from calcofluor (Botrytis cinerea): no rescue | growth in calcofluor culture (Neurospora crassa): extensive growth | rescue from calcofluor [1]: no rescue | growth of strain SSY638-3B (in words) [2]: unaffected
